Results on 5 molecules are retold here after patent publication US20150071941A1, “TREATMENT OF ISCHEMIC RETINOPATHIES” (THE JOHNS HOPKINS UNIVERSITY, priority 2012, published 2015).

Entries after “also recorded” stand apart in the source; their conditions may differ.

In assay [1] the test system is human dermal microvascular endothelial cells (HMVECs). As to the kind of experiment: In vitro endothelial cell permeability assay (passage of FITC-dextran through HMVEC monolayer). The assay is classed as cell-based. As for the experimental part: Permeability Assays. In vitro permeability assay was performed as previously described (48). Briefly, HMVEC were seeded on collagen-coated transwells ([…], PTFE; Corning), and allowed to grow as a 3-d-old mature monolayer. Following overnight starvation, 500 μL and 100 μL of conditioned medium were added for 30 min (37° C.) to the bottom and top chamber, respectively. A total of 100 μL of 1 mg/mL FITC dextran (molecular weight=40,000; Invitrogen) was added for 30 min. Fluorescence was quantified using a SpectraMax M5 Microplate Reader (Molecular Devices) with excitation at 494 nm and emission at 521 nm.

In assay [2] the test system is inner retina vessels. In words: OIR mouse model: vascular permeability / retinal edema (inner retinal cysts, extravascular albumin). The assay is classed as in vivo. The conditions noted are these: P13 OIR mice, digoxin 2 mg/kg daily intraperitoneal. As to the method:
(§1) Oxygen-Induced Retinopathy (OIR). […] At P12 the mice were returned to room air.
(§2) Quantitation of vascular permeability in the retina was assessed by examining 4 high powered fields of the posterior retina from three animals and counting the number of CD31-labled inner retina vessels in the posterior retina that had visible adjacent extravascular albumin (detected by immunofluorescence) as a percent of the total vessels in each field.
(§3) Immunohistochemistry and Immunofluorescence. Immunohistochemical detection of extravascular albumin (Cedarlane-Nordic) was performed on cryopreserved mouse tissue sections using a nitroblue tetrazolium (NBT) development system using Streptavidin alkaline phosphatase (APase) as previously described (53) Immunohistochemical detection of HIF-1 alpha (Abcam), human and murine ANGPTL4 (Abcam and Lifespan BioSciences, respectively), VEGF (Santa Cuz), CD34 (Covance), and GFAP (Sigma) were performed in paraffin embedded human tissue (obtained from the Wilmer Eye Institute Ocular Pathology Archives with approval from the Johns Hopkins School of Medicine Internal Review Board) and mice cryopreserved tissue using ABC system (Dako) as previously described (4).

Assay [3] deals with GFAP. As to the kind of experiment: OIR mouse model: GFAP expression in Müller cells. Format: in vivo. The conditions noted are these: OIR mice, administration of digoxin.
Excerpt: as §1

For assay [4], the system named is Angptl4. As to the kind of experiment: OIR mouse model: RT-PCR of Angptl4 mRNA in neurosensory retina. Format: in vivo. The conditions noted are these: OIR mice P12-P14, daily intraperitoneal digoxin. As to the method:
as §1
(§4) Quantitative Real-Time RT-PCR. RNA was isolated from culture cells or retinas with RNeasy Mini Kit (Qiagen) and cDNA prepared using MuLV Reverse Transcriptase (Applied Biosystems, Carlsbad, Calif.). Quantitative real-time PCR was performed with Power SYBR Green PCR Master Mix (Applied Biosystems) and MyiQ Real-Time PCR Detection System (Bio Rad). Normalization was done using cyclophilin A for mouse tissue and cell lines and β-actin for human cell lines. Primers for qPCR include: human VEGF, forward—[…] (SEQ ID NO:1) and reverse—[…] (SEQ ID NO:2); human ANGPTL4, forward—[…] (SEQ ID NO:3) and reverse—[…] (SEQ ID NO:4); human β-actin, forward—[…] (SEQ ID NO:5) and reverse—[…](SEQ ID NO:6); mouse VEGF, forward—[…] (SEQ ID NO:7) and reverse—[…](SEQ ID NO:8); mouse ANGPTL4, forward—[…] (SEQ ID NO:9) and reverse—[…] (SEQ ID NO:10); mouse cyclophilin A, forward—[…] (SEQ ID NO:11) and reverse—[…] (SEQ ID NO:12).

Assay [5] relates to Vegf. As to the kind of experiment: OIR mouse model: RT-PCR of Vegf mRNA in neurosensory retina. The assay is classed as in vivo. The conditions noted are these: OIR mice P12-P14, daily intraperitoneal digoxin. As to the method: as §1, §4
Assay [6] concerns VEGF. As to the kind of experiment: MIO-M1 Müller cells: VEGF mRNA (RT-PCR) and secreted protein (ELISA). Format: cell-based, human. The conditions noted are these: digoxin 100 nM, 2 hours prior to hypoxia; 8 hours hypoxia. As for the experimental part:
(§5) Cell Culture and Reagents. MIO-M1 cells were a generous gift from Astrid Limb (University College London Institute of Ophthalmology). Isolation of primary Müller cells was performed as previously described (51). Primary human dermal microvascular endothelial cells (HMVEC) were obtained from Lonza and cultured according the manufacter's protocols. Recombinant ANGPTL4 and VEGF, and ANGPTL4 and VEGF ELISA kits were obtained from R&D Systems. The KDR inhibitor, SU1498, and rapamycin were obtained from Calbiochem. Digoxin was obtained from Sigma. Predesigned control (Scrambled) and ANGPTL4 and HIF-1β siRNA sequences were obtained from Qiagen. AdLacZ and AdCAS have been previously described (26).
(§6) Quantitative Real-Time RT-PCR. RNA was isolated from culture cells or retinas with RNeasy Mini Kit (Qiagen) and cDNA prepared using MuLV Reverse Transcriptase (Applied Biosystems, Carlsbad, Calif.). Quantitative real-time PCR was performed with Power SYBR Green PCR Master Mix (Applied Biosystems) and MyiQ Real-Time PCR Detection System (Bio Rad). Normalization was done using cyclophilin A for mouse tissue and cell lines and β-actin for human cell lines. Primers for qPCR include: human VEGF, forward—[…] (SEQ ID NO:1) and reverse—[…] (SEQ ID NO:2); human ANGPTL4, forward—[…] (SEQ ID NO:3) and reverse—[…] (SEQ ID NO:4); human β-actin, forward—[…] […]
For orientation: An ELISA detects its analyte on a solid surface through an enzyme-linked reagent.

The test system of assay [7] is ANGPTL4. In words: MIO-M1 Müller cells: ANGPTL4 mRNA (RT-PCR) and protein (Western blot/ELISA). To be noted: digoxin pretreatment (100 ng as printed), 2 hours prior hypoxia. The assay is classed as cell-based, human. As for the experimental part:
as §5, §6

Assay [8] relates to mouse ear vasculature. In words: Modified Miles assay, vascular permeability in the mouse ear. Format: in vivo. To be noted: intradermal injection of ANGPTL4 0.2 μg vs PBS. As for the experimental part:
In vivo permeability was assessed using a modified Miles assay as previously described (48). Briefly, Evan Blue dye was injected into mouse tail veins (200 μL of 12 mg/ml solution in PBS). After 5 minutes, animals were anesthetized using Tribromoethanol. 20 ul 0.2 ug VEGF or 0.2 ug ANGPTL4 was injected intradermally into the right ear (PBS was injected into left ear as a control). After 8 minutes, photographs were taken. Levels of Evans blue dye was then extracted from mouse ear in 1 mL of formamide at 55° C. for 16 hours and dye content quantified at 610 nm using a spectrophotometer (48).

The subject of assay [9] is angiogenesis. In words: Promotion of angiogenesis / NV in vitro and in vivo (Example 9, cornea pocket assay). From the text:
Cell Culture: ARPE19, human ES derived RPE cells, primary murine RPE cells. Rat: Subretinal lipid hydroperoxide CNV Model. Assays used included Cornea pocket assay, Western Blot and RT-PCR, and Immunohistochemistry and Immunofluorescence. Patient Samples: ELISA analysis of ANGPTL4 levels in aqueous humor.

The subject of assay [10] is inner retina vessels. As to the kind of experiment: Intravitreal injection of recombinant protein into the mouse eye: retinal vascular permeability. Format: in vivo. As for the experimental part: […]. Intraocular injections with 1 μl of rmVEGF or rmANGPTL4 (200 ng/ul) were performed with a nanofil syringe (World Precision Instruments) using a 36G beveled needle. Intraocular injections with 1 μl of AdLacZ or AdCAS (2×10^12 VP/mL) were performed with pulled-glass micropipettes and a Harvard pump microinjection apparatus as previously described (52).
as §2, §3

Regarding `CC(C)c1cc(/C=C(\C#N)C(=O)NCCCc2ccccc2)cc(C(C)C)c1O` [SU1498], in assay [1] (SU1498 5 μM pre-treatment of endothelial cells), the “endothelial cell permeability promoted by 100 ng recombinant human VEGF” value is reported as “completely blocked the induction of endothelial cell permeability; also recorded: abolishes the promotion of endothelial cell permeability by 100 ng of recombinant human VEGF”. Besides, the “endothelial cell permeability promoted by conditioned media from hypoxic MIO-M1 cells” value in [1] (SU1498 5 μM pre-treatment of endothelial cells, 8 hours hypoxia) is recorded as “only a partial inhibition of endothelial cell permeability; also recorded: only partially blocks the promotion of endothelial cell permeability”.
Regarding `C[C@H]1O[C@@H](O[C@H]2[C@@H](O)C[C@H](O[C@H]3[C@@H](O)C[C@H](O[C@H]4CC[C@@]5(C)[C@H](CC[C@@H]6[C@@H]5C[C@@H](O)[C@]5(C)[C@@H](C7=CC(=O)OC7)CC[C@]65O)C4)O[C@@H]3C)O[C@@H]2C)C[C@H](O)[C@@H]1O` [digoxin], the “vascular permeability (inner retinal cysts, extravasated albumin)” value in assay [2] is “decrease in vascular permeability; also recorded: inhibits the increase in inner retinal cysts and extravasated albumin”. Also, the GFAP expression result in assay [3] is given as “not affected”. Moreover, the “induction of Angptl4 mRNA” value in [4] is recorded as “completely abolished the induction of Angptl4”. The “induction of Vegf mRNA” value in [5] is given as “only partially inhibited the induction of Vegf”. Moreover, the “VEGF mRNA expression and protein secretion” value in assay [6] is “inhibited VEGF mRNA expression and protein secretion; also recorded: inhibits”. Moreover, the “ANGPTL4 RNA and protein induced by hypoxia” value in assay [7] is recorded as “inhibited”. The “endothelial cell permeability promoted by conditioned media from hypoxic MIO-M1 cells” value in [1] (MIO-M1 pre-treated with 100 nM digoxin 2 hours prior to 8 hour hypoxia) is on record as “potently blocked the property of the conditioned media to promote an increase in endothelial cell permeability; also recorded: inhibits the promotion of endothelial cell permeability by hypoxic MIO-M1 cells”.
Consider VEGF, for which the endothelial cell permeability result in [1] (VEGF 100 ng) is “promotes endothelial cell permeability”.

B1: ANGPTL4: Recombinant angiopoietin-like 4 protein obtained from R&D Systems (protein, UniProt Q9BY76 26-406, looked up)
Angiopoietin-related protein 4: GPVQSKSPRFASWDEMNVLAHGLLQLGQGLREHAERTRSQLSALERRLSACGSACQGTEGSTDLPLAPESRVDPEVLHSLQTQLKAQNSRIQQLFHKVAQQQRHLEKQHLRIQHLQSQFGLLDHKHLDHEVAKPARRKRLPEMAQPVDPAHNVSRLHRLPRDCQELFQVGERQSGLFEIQPQGSPPFLVNCKMTSDGGWTVIQRRHDGSVDFNRPWEAYKAGFGDPHGEFWLGLEKVHSITGDRNSRLAVQLRDWDGNAELLQFSVHLGGEDTAYSLQLTAPVAGQLGATTVPPSGLSVPFSTWDQDHDLRRDKNCAKSLSGGWWFGTCSHSNLNGQYFRSIPQQRQKLKKGIFWKTWRGRYYPLQATTMLIQPMAAEAAS
Turning to B1, the endothelial cell permeability entry in [1] (recombinant human ANGPTL4 2.5 or 5 μg) is “potently induced endothelial cell permeability”; in assay [1] (recombinant human ANGPTL4 2.5 or 5 μg, listed as recombinant human ANGPTL4), “promotes endothelial cell permeability”. In addition, in assay [8], the “vascular permeability (Evans blue dye, 610 nm)” value was “remarkable increase in vascular permeability; also recorded: marked increase in dye”. Moreover, the promotion of angiogenesis result in [9] was “promoted angiogenesis both in vitro and in vivo”.

B2: rmANGPTL4: recombinant murine ANGPTL4 injected intravitreally (protein, UniProt Q9Z1P8 24-410, looked up)
Angiopoietin-related protein 4: QGRPAQPEPPRFASWDEMNLLAHGLLQLGHGLREHVERTRGQLGALERRMAACGNACQGPKGKDAPFKDSEDRVPEGQTPETLQSLQTQLKAQNSKIQQLFQKVAQQQRYLSKQNLRIQNLQSQIDLLAPTHLDNGVDKTSRGKRLPKMTQLIGLTPNATHLHRPPRDCQELFQEGERHSGLFQIQPLGSPPFLVNCEMTSDGGWTVIQRRLNGSVDFNQSWEAYKDGFGDPQGEFWLGLEKMHSITGNRGSQLAVQLQDWDGNAKLLQFPIHLGGEDTAYSLQLTEPTANELGATNVSPNGLSLPFSTWDQDHDLRGDLNCAKSLSGGWWFGTCSHSNLNGQYFHSIPRQRQERKKGIFWKTWKGRYYPLQATTLLIQPMEATAAS
In the case of B2, in assay [10] (200 ng rmANGPTL4 intravitreal vs PBS), the “inner retinal cysts (H & E)” value is reported as “increased inner retinal cysts”. For the same molecule, the “extravasation of albumin (immunohistochemistry)” value in assay [10] (200 ng rmANGPTL4 intravitreal vs control) is “extravasation of albumin”. In [10] (rmANGPTL4 intravitreal, retinas after 48 hours), the “vascular permeability (leakage of plasma and albumin)” value was “marked and statistically significant increase in vascular permeability”.
